Values after ≈ are worked out from the molar mass of the structure shown. Read-outs that look alike come from different tables or passages of the source.

Series [1] can be described thus: in vitro drug release, inverted-cup method. The format is physicochemical. The note with it: for solubility: PBS pH 7.4 with 0.25% SDS (release medium), pH 7.4, read-out: solubility in the release media. The protocol: In a preliminary study, the release of ROP-ST from its oil solution was investigated at 25 °C using the dialysis method. Briefly, 0.5 mL of ROP-ST oil solution was placed into a dialysis bag (MWCO: 14 kDa) and immersed into 150 mL of PBS solution (pH 7.4) with 0.5% sodium dodecyl sulfate (SDS). The dialysis media were stirred with a magnetic bar at 100 r/min. An aliquot (1 mL) was withdrawn at predetermined time intervals, and ROP-ST in the samples was quantified using HPLC−UV. […] Therefore, an “inverted-cup” method was utilized in this study to investigate the release profile of ROP-ST (Figure 3a). Briefly, a beaker containing 150 mL of PBS solution (pH 7.4, with 0.25% SDS) as the release medium was placed on a magnetic stirrer and stirred continuously at 100 r/min at room temperature (25 °C). A transparent glass cylinder (inner diameter: 1 cm) with two open endings was placed vertically in the beaker, with one ending immersed in the PBS solution and the other ending exposed to air. Then, 1 mL of ROP-ST oil solution was added to a glass cylinder, and the ending exposed in air was sealed with a plastic thin-film. In the meantime, the beaker was also sealed with a plastic thin-film. At predetermined time intervals, an aliquot (1 mL) of the release medium were withdrawn by a syringe, and 1 mL of fresh release medium was immediately replenished. The concentration of ROP-ST in the samples was determined by HPLC−UV, and the cumulative release of ROP-ST was calculated accordingly. The experiment was performed in triplicates.
For comparison, the release of an ROP-free base from its soybean oil solution and the release of aripiprazole lauroxil (APL) from its soybean oil solution were also investigated. […] To prepare the APL oil solution, 90.4 mg of APL was dissolved and mixed in 5 mL of soybean oil. The concentration of APL was 18.08 mg/mL (27.37 mM). […] Moreover, the marketed APL injectables are suspensions; therefore, the release of APL from its suspension was also studied. This was carried out by placing 5.89 mg of APL into 150 mL of PBS7.4 solution directly, which contained 0.25% SDS. The solution was also stirred and sampled in the same way as described above. APL was analyzed according to the previously reported method.

A short description of series [2]: saturated solubility (shake, 37 °C, 72 h, HPLC-UV). The format is physicochemical. The note with it: for SPBS 7.4, the solubility in PBS 7.4 solution: PBS pH 7.4, 37 °C. The method, then: After centrifugation at 12,000 r/min for 10 min (TGL-16C centrifuge; Anting Scientific Instrument Company, Shanghai, China), the supernatant was withdrawn, and the solution was filtered through a syringe filter (pore size: 0.45 μm). […] The experiments were performed in triplicates.
Quantification of ROP-ST was performed using an HPLC−UV system consisting of an LC-10AT VP pump, an SPD-10A VP UV–vis detector, a CTO-10A column oven, a SIL-10AF autosampler, and an SCL-10A VP controller (Shimadzu Corporation; Kyoto, Japan). Data were collected and processed using LC-solution software. Isocratic elution was performed on a Diamonsil C18 column (150 mm × 4.6 mm I.D., 5 µm), and an EasyGuard C18 guard column (10 × 4.0 mm I.D., 5 µm) was mounted upstream from the analytical column (Dikma Technologies; Beijing, China). The column temperature was kept at 35 °C, and the UV absorbance wavelength was set at 215 nm. The mobile phase, comprising 88% (v/v) acetonitrile and 12% (v/v) water with 0.1% (v/v) trifluoroacetic acid, was used after filtering through a filter membrane (pore size: 0.45 μm) and degassing within an ultrasonic water bath (KQ-500VDE Ultrasonic Cleaner; Kunshan, China) for 40 min. The flow rate was maintained at 1.0 mL/min, and the injection volume was 20 µL. The calibration curve was linear in the range of 1–200 μM, and the correlation coefficient was >0.9998. […] The lower limit of quantification (LOQ) of ROP-ST was 1 μM (equal to 0.57 μg/mL). The validation of the HPLC method can be found in Supplemental Materials.
Briefly, the column temperature was kept at 35 °C, and the UV absorbance wavelength was set at 240 nm. The mobile phase comprised 50% (v/v) acetonitrile and 50% (v/v) phosphate buffer. The phosphate buffer was prepared by mixing 1.3 mL of sodium dihydrogen phosphate (1 mol/L) with 32.5 mL of disodium hydrogen phosphate (0.5 mol/L) and diluting to 1 L by water, and then the pH value was adjusted to 8.0. The flow rate was maintained at 1.0 mL/min, and the injection volume was 20 µL. The validation of the quantification method can be found in the Supplementary Materials.

A short description of series [3]: n-octanol/water partition coefficient (experimental Log P). The format is physicochemical. The note with it: 37 °C, read-out: Log Pexp., experimental Log P. The protocol: Approximately 1 mg of ROP-ST and ROP-free base were dissolved in a bi-phase mixture of water-saturated n-octanol solution and n-octanol-saturated water (5 mL:5 mL), respectively. After equilibration in a water bath shaker (37 °C) for 24 h, the two phases were sampled separately and diluted with acetonitrile. […] The Log P value of each compound was calculated accordingly. The experiments were performed in triplicates.

Series [4] in a line: liver esterase stability study of ROP-ST. The format is in vitro ADME, porcine. The note with it: 0 U/mL, phosphate buffer (pH 8.0) without liver esterase, 25 °C. The method, then: (§1) Porcine liver esterase solutions were prepared by dissolving 4, 8, and 16 mg of porcine liver esterase powder (15 U/mg) into 12 mL of phosphate buffer (pH 8.0) to obtain porcine liver esterase solutions with the concentrations of 5, 10 and 20 U/mL, respectively. A half milliliter of blank buffer solution (pH 8 without enzyme) or porcine liver esterase solutions with the concentration of 5, 10, or 20 U/mL, respectively, was added to an EP tube, followed by adding 50 μL of methanolic solution of ROP-ST (concentration: 1100 μM) to each tube. The tubes were sealed and placed in a water bath shaker (25 °C) according to product instructions and a previous report. Three tubes were taken at each predetermined time point (0, 30, 45, 60, 75, 90, 105, and 120 min, respectively), rapidly frozen in liquid nitrogen to terminate the enzymatic reaction, and then stored at −80 °C. The subsequent treatments of the samples complied with the procedures described in “Section 2.5.1.”. The experiment was conducted in triplicates.
(§2) The enzymatic stability of ROP-ST was examined by placing the methanolic solution of the prodrug into rat plasma solution and porcine liver esterase solution. […] The hydrolysis rate constants (kobs) of the prodrug were calculated by plotting the natural logarithm of the remaining percentage against time. The corresponding half-life (t1/2) was then calculated (t1/2 = ln2/kobs). Data at 25 °C were fitted approximately to a first-order kinetic equation for the prodrug loss (Figure 4). It should be noted that the actual hydrolytic kinetics of such lipophilic prodrugs by enzymes could be complicated in vitro and in vivo, which may not fully comply with the first-order kinetics. […] The rate of enzymatic cleavage increases as the concentration of rat plasma or the concentration of porcine liver esterase increases. In fact, the injection site of ROP-ST is muscle, which contains less esterase than the plasma. Therefore, it is logical to hypothesize that the bioconversion rate of ROP-ST in the muscle should be slower, which enables sustained release and long-acting efficacy.

The test system of the next series is porcine liver esterase. In words: liver esterase stability study of ROP-ST. The note with it: for half-life at 100 µM: pig, porcine liver esterase solution. The series is classed as in vitro ADME. The protocol:
as §1, §2

Series [5] in a line: in vitro drug release, dialysis method (preliminary). The format is physicochemical. The note with it: oil solution in dialysis bag MWCO 14 kDa, PBS pH 7.4 with 0.5% SDS, 25 °C, until 96 h. The protocol: In a preliminary study, the release of ROP-ST from its oil solution was investigated at 25 °C using the dialysis method. Briefly, 0.5 mL of ROP-ST oil solution was placed into a dialysis bag (MWCO: 14 kDa) and immersed into 150 mL of PBS solution (pH 7.4) with 0.5% sodium dodecyl sulfate (SDS). The dialysis media were stirred with a magnetic bar at 100 r/min. An aliquot (1 mL) was withdrawn at predetermined time intervals, and ROP-ST in the samples was quantified using HPLC−UV. […] Therefore, an “inverted-cup” method was utilized in this study to investigate the release profile of ROP-ST (Figure 3a). Briefly, a beaker containing 150 mL of PBS solution (pH 7.4, with 0.25% SDS) as the release medium was placed on a magnetic stirrer and stirred continuously at 100 r/min at room temperature (25 °C). A transparent glass cylinder (inner diameter: 1 cm) with two open endings was placed vertically in the beaker, with one ending immersed in the PBS solution and the other ending exposed to air. Then, 1 mL of ROP-ST oil solution was added to a glass cylinder, and the ending exposed in air was sealed with a plastic thin-film. In the meantime, the beaker was also sealed with a plastic thin-film. […] The concentration of ROP-ST in the samples was determined by HPLC−UV, and the cumulative release of ROP-ST was calculated accordingly. […]

A short description of series [6]: plasma stability study of ROP-ST. The format is in vitro ADME, rat. The note with it: 25 °C. The protocol: Healthy male Sprague–Dawley rats (SD rats, 200 ± 20 g) were provided by the Animal Experiment Center of Nantong University (protocol code of the ethical proof: S20240617-005). Blood samples were collected from the orbital cavity and centrifuged at 10,000 r/min for 10 min (TGL-16C centrifuge; Anting Scientific Instrument Company, Shanghai, China) to obtain blank plasma. The blank plasma was mixed with saline to obtain plasma solutions of 10%, 20%, and 40% (v/v) plasma, respectively. A half milliliter of saline, or 10%, 20%, and 40% plasma solution, was added to an EP tube, respectively, followed by adding 50 μL of methanolic solution of ROP-ST (concentration: 1100 μM) to each tube. The tubes were sealed and placed in a water bath shaker (37 °C). Three tubes were taken at each predetermined time point (0, 10, 20, 30, 40, 50, 60, 70, 80, and 90 min, respectively), rapidly frozen in liquid nitrogen to terminate the enzymatic reaction, and then stored at −80 °C. The samples were lyophilized to obtain dry residues. Before analysis, the residues were dissolved in methanol and subjected to ultrasonic treatment for 30 s. The resulting solution was filtered through a filter membrane (pore size: 0.45 μm), and the remaining levels of ROP-ST in subsequent filtrates were quantified by HPLC−UV. The hydrolysis rate constants (kobs) of the prodrug were calculated by plotting the natural logarithm of the remaining percentage against time. The corresponding half-life (t1/2) was then calculated (t1/2 = ln2/kobs). The experiment was conducted in triplicates.
as §2

For series [7] the following is noted: no reference given; cited from earlier work.
Where [8] appears, read: 5 U/mL porcine liver esterase, pH 8.0, 25 °C.
Setting [9] is: 10 U/mL porcine liver esterase, pH 8.0, 25 °C.
Where [10] appears, read: 20 U/mL porcine liver esterase, pH 8.0, 25 °C.
Setting [11] is: 0% rat plasma (saline solution without rat plasma).

For `CCCCCCCCCCCC(=O)OCN1C(=O)CCc2ccc(OCCCCN3CCN(c4cccc(Cl)c4Cl)CC3)cc21` [APL, aripiprazole lauroxil, reference compound], the solubility in series [1] was approximately 209 µM (≈ 138 µg/mL).

Consider `CCCN1CCCC[C@H]1C(=O)Nc1c(C)cccc1C` [ROP, Ropivacaine], for which the solubility at 72 h in series [2] (PBS buffer pH 7.4, pH 7.4, PBS pH 7.4, 37 °C, read-out: SPBS 7.4, the solubility in PBS 7.4 solution) was approximately 1000 µM; in series [2] (PBS buffer pH 7.4, pH 7.4, PBS pH 7.4, 37 °C, read-out: solubility in PBS 7.4 solution) it was approximately 0.27 mg/mL; in series [2] (soybean oil, 37 °C, read-out: Soil, the solubility in soybean oil), 37000 ± 530 µM. The “SPBS 7.4, the solubility in PBS 7.4 solution” value in series [2] was 1040 ± 40 µM. Also, the “released in the first 12 h” value in series [1] (from soybean oil solution 27.37 mM, PBS pH 7.4 with 0.25% SDS, 25 °C) is recorded as approximately 80%. Also, the logP at 24 h in series [3] was 1.88 ± 0.17.

In the case of `CCCCCCCCCCCCCCCCCC(=O)OCN(C(=O)C1CCCCN1CCC)c1c(C)cccc1C` (stereo not drawn) [ROP-ST, ropivacaine stearoxil], the half-life at 100 µM is 88.4 ± 14.9 h in series [4]; 6.78 ± 1.99 h in the series on porcine liver esterase (setting [8]); 4.34 ± 0.03 h in the series on porcine liver esterase (setting [9]); 3.09 ± 0.36 h in the series on porcine liver esterase (setting [10]); 82.2 ± 26.2 h in series [6] (setting [11]); 1.59 ± 0.06 h in series [6] (male, Sprague-Dawley, 10% (v/v) rat plasma in saline, 10% (v/v) rat plasma). Moreover, the half-life at 100 µM in series [6] (male, Sprague-Dawley, 20% (v/v) rat plasma in saline, 20% (v/v) rat plasma) is 1.04 ± 0.06 h; in series [6] (male, Sprague-Dawley, 40% (v/v) rat plasma in saline, 40% (v/v) rat plasma) it was 1.04 ± 0.05 h. Besides, the “k × 10^3, first-order hydrolysis rate constant” value in the series on porcine liver esterase (0 U/mL, phosphate buffer (pH 8.0) without liver esterase, 25 °C) is recorded as 8.0 ±1.3 h^−1; with porcine liver esterase (setting [8]) it was 107.9 ± 29.0 h^−1; in the series on porcine liver esterase (setting [9]), 159.6 ±1.3 h^−1; in the series on porcine liver esterase (setting [10]), 226.1 ± 24.7 h^−1; in series [6] (setting [11]), 9.1 ± 3.2 h^−1; in series [6] (10% (v/v) rat plasma), 436.6 ± 17.2 h^−1. Further, the “k × 10^3, first-order hydrolysis rate constant” value came to 665.0 ± 35.2 h^−1 in series [6] (20% (v/v) rat plasma) and 666.9 ± 30.7 h^−1 in series [6] (40% (v/v) rat plasma). Further, the “ROP-ST detected in dialysis medium” value in series [5] is given as “no ROP-ST was detected”. Also, the “SPBS 7.4, the solubility in PBS 7.4 solution” value in series [2] is recorded as “<LOQ”. Moreover, the “Soil, the solubility in soybean oil” value in series [2] (soybean oil, 37 °C) was “Miscible”. Also, the solubility in series [1] was approximately 1500 µM (≈ 856 µg/mL). Moreover, in series [1] (from soybean oil solution 27.37 mM, PBS pH 7.4 with 0.25% SDS, 25 °C, 72 h), the total cumulative release worked out at 69.55%. The “duration of sustained release” value in series [1] (from soybean oil solution, PBS pH 7.4 with 0.25% SDS, 25 °C) is reported as “more than 72 h”.

Take `O=C1CCc2ccc(OCCCCN3CCN(c4cccc(Cl)c4Cl)CC3)cc2N1` [aripiprazole]: in series [7], the pKa is recorded as 7.46.

These data come from paper PMC11768344 (Pharmaceutics, 2024).
